“And” between values parts separate entries of the source, which are not always exact repeats. Equal entries are not always repeated. Marks after values point to notes of the source that are not given here. Non-standard residues stand in square brackets, D forms with d. Residues, ends and D or L forms follow the SMILES beside them. *: point of attachment. Asu = N[C@@H](CCCCCC(=O)O)C(=O)O; NHOH = ON*
How the values were obtained:
HDAC1 [1] = biological target: T1, HDAC1 (Homo sapiens, UniProt Q13547); test: Recombinant HDAC µSPOT microarray binding assay;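 note: slides with spotted peptides incubated with six HDAC concentrations in HEPES buffer pH 7.4, spot intensities fitted by four-parameter logistic, EC50 as enzyme concentration giving half-maximal binding signal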
T1 construct: HDAC1 (full length, C-terminal His tag, C-terminal FLAG tag, BPS Bioscience, cat. #: 50051); FLAG (C); purchased BPS Bioscience 50051

HDAC3/NCoR2 [2] = biological target: T2, HDAC3/NCoR2 (Homo sapiens, UniProt O15379); test: Recombinant HDAC µSPOT microarray binding assay;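 note: peptide spots on cellulose slides incubated with rising HDAC enzyme concentrations, imaged together, four-parameter logistic fit, EC50 is enzyme concentration giving half-maximal binding signal, two experiments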
T2 construct: HDAC3/NCoR2 (full length, C-terminal His tag, NCoR2 N-terminal GST tag); purchased BPS Bioscience 50003

HDAC8 [3] = biological target: T3, HDAC8 (Homo sapiens, UniProt Q9BY41); test: Recombinant HDAC µSPOT microarray binding assay;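 note: peptide µSPOT slides incubated with varying HDAC enzyme concentrations, imaged signal intensity fitted by four-parameter variable-slope regression, EC50 is enzyme concentration giving half-maximal binding, pH 7.4 HEPES buffer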
T3 construct: HDAC8 (full length, C-terminal His tag, BPS Bioscience, cat. #: 50008); purchased BPS Bioscience 50008
T3 sequence (Q9BY41 1-377): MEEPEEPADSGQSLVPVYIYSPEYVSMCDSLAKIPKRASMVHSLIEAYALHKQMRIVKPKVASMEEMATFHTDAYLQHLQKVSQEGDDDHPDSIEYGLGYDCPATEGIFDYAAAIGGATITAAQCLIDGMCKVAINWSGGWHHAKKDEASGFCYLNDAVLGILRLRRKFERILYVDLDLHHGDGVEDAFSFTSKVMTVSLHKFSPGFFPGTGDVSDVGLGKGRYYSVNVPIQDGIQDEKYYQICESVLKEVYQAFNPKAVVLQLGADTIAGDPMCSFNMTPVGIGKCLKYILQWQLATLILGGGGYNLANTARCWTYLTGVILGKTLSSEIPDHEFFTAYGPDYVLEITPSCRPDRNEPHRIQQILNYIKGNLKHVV

HDAC1 [4] = biological target: T1, HDAC1; test: HDAC inhibition assay (fluorogenic, Ac-Leu-Gly-Lys(Ac)-AMC); type: biochemical; conditions: for HDAC1 dose-response data (relative enzyme activity), Fig. 6 + S. Fig. 10: duplicate columns
HDAC3/NCoR2 [5] = biological target: T2, HDAC3/NCoR2; test: as above; type: biochemical; conditions: for HDAC3 dose-response data (relative enzyme activity), Fig. 6 + S. Fig. 10: duplicate columns
HDAC8 [6] = biological target: T3, HDAC8; test: HDAC inhibition assay (fluorogenic, Ac-Leu-Gly-Lys(Tfa)-AMC); type: biochemical; conditions: for HDAC8 dose-response data (relative enzyme activity, replicate values), Fig. 6 + S. Fig. 10: two replicate columns per inhibitor; for HDAC8 dose-response data (relative enzyme activity), Fig. 6 + S. Fig. 10: duplicate columns
HDAC6 = biological target: T4, HDAC6 (Homo sapiens, UniProt Q9UBN7); test: HDAC inhibition assay (fluorogenic, Ac-Leu-Gly-Lys(Ac)-AMC); type: biochemical; conditions: HDAC6, replicates
T4 construct: HDAC6 (full length, BPS Bioscience, cat. #: 50056); purchased BPS Bioscience 50056
T4 sequence (Q9UBN7 1-1215): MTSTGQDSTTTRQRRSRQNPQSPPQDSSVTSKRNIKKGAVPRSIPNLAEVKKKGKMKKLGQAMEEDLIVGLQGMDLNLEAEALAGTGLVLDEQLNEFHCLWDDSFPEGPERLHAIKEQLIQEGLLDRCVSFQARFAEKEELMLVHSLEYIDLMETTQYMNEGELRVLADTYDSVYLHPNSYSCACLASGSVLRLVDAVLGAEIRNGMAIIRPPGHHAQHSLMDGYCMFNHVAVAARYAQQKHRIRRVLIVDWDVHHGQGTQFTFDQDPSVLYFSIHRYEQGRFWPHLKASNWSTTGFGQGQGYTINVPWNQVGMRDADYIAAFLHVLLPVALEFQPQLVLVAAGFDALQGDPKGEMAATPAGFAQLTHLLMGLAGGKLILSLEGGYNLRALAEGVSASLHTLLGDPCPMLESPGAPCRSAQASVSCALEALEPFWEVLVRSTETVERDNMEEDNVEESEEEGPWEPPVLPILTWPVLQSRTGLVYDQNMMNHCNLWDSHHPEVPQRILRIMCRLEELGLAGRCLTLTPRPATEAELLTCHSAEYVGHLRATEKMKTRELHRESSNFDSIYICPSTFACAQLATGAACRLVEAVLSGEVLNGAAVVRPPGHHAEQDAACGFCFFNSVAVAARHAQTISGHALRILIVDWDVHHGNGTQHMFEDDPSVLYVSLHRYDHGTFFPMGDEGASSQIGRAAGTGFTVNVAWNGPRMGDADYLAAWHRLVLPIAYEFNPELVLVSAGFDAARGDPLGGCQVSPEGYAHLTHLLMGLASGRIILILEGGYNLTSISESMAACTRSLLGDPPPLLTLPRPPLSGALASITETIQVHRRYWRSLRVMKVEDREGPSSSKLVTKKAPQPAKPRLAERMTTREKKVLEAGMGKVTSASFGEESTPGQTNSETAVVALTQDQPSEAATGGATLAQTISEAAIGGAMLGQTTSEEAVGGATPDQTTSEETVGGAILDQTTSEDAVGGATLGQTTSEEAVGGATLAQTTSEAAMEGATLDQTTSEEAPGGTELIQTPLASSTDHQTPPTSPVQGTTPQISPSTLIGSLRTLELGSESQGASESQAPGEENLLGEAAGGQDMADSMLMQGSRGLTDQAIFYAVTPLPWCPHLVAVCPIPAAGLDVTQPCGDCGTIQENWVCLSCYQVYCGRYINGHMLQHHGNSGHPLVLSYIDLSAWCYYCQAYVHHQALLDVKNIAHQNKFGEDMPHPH

HDAC4 = biological target: T5, HDAC4 (Homo sapiens, UniProt P56524); test: HDAC inhibition assay (fluorogenic, Ac-Leu-Gly-Lys(Tfa)-AMC); type: biochemical; conditions: 2 internal replicates
T5 construct: purchased BPS Bioscience 50004

HDACs 1‒3 and 8 = test: HDAC inhibition assays, statements across several class I isozymes; type: biochemical, human; conditions: across the HDACs named in the sentence
[7] = log[inhibitor(M)] -10,5850266520292*, whole line marked with asterisks

T5 sequence (P56524 627-1084): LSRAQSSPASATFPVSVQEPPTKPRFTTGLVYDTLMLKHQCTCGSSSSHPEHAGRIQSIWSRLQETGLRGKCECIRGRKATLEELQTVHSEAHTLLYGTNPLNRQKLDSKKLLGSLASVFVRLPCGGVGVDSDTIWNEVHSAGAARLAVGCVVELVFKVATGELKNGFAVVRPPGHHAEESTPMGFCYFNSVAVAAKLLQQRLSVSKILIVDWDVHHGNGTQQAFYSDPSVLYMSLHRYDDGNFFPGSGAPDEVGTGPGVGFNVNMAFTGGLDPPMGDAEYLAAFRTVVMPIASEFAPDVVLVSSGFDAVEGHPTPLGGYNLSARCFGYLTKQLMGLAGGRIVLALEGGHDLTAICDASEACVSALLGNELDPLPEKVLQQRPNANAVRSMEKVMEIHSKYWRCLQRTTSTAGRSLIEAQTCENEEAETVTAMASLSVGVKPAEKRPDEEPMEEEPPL
T2 sequence (O15379 whole entry): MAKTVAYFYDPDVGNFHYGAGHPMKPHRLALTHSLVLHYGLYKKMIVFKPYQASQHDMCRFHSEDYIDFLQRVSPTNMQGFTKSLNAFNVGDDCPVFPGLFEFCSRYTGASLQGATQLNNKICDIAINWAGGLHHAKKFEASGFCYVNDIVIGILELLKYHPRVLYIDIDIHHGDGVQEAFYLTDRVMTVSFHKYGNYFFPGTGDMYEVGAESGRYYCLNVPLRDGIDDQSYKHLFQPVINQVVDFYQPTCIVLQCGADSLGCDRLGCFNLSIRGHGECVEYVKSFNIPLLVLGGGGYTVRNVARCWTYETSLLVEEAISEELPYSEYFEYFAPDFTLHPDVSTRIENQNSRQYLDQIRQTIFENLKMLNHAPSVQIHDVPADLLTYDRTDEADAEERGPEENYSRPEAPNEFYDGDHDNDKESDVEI
T2 sequence (Q9Y618 389-480 partner limits assumed): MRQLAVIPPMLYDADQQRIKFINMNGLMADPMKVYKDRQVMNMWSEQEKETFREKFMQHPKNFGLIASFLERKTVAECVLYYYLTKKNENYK
T1 sequence (Q13547 whole entry): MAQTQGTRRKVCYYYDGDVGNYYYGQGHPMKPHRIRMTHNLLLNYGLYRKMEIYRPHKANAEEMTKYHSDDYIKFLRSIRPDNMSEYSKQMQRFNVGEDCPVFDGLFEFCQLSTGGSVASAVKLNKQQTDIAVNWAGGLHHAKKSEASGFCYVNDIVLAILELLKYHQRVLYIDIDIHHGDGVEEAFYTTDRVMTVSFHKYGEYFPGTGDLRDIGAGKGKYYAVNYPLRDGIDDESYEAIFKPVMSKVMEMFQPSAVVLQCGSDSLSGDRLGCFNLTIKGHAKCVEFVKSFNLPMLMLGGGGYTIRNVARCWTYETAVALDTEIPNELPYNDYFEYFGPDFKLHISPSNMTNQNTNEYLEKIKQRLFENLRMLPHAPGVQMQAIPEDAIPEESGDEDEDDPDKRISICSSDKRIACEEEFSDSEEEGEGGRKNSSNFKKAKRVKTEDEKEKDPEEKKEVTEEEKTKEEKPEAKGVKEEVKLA

CC(=O)N1CCC[C@H]1C(=O)N[C@@H](CCCNC(=N)N)C(=O)N[C@@H](CCCCN)C(=O)N[C@@H](CCC(N)=O)C(=O)N[C@@H](CC(C)C)C(=O)N[C@@H](C)C(=O)N[C@H](C(=O)N[C@@H](CCCCN)C(=O)N[C@@H](C)C(=O)N[C@@H](C)C(=O)N[C@@H](CCCNC(=N)N)C(=O)N[C@@H](CCCCCC(=O)NO)C(=O)N[C@@H](CO)C(=O)N[C@@H](C)C(=O)N1CCC[C@H]1C(=O)N[C@@H](C)C(=O)N[C@@H](Cc1c[nH]c2ccccc12)C(N)=O)[C@@H](C)O [14a] (Ac-PRKQLATKAAR[Asu](NHOH)SAPAW-NH2)
EC50 (HDAC1 [1]): 9.12 nM | EC50 (HDAC3/NCoR2 [2]): 2.95 nM | EC50 (HDAC8 [3]): 3.02 nM | Ki (HDAC1 [4]): 24.7 ± 0.5 nM | HDAC1 dose-response data (relative enzyme activity), Fig. 6 + S. Fig. 10 (HDAC1 [4]; log[inhibitor(M)] -5): 15.0147 and 10.9187 | HDAC1 dose-response data (relative enzyme activity), Fig. 6 + S. Fig. 10 (HDAC1 [4]; log[inhibitor(M)] -5.69897): 14.0922 and 20.0402 | HDAC1 dose-response data (relative enzyme activity), Fig. 6 + S. Fig. 10 (HDAC1 [4]; log[inhibitor(M)] -6.39794): 32.9512 and 39.8845 | HDAC1 dose-response data (relative enzyme activity), Fig. 6 + S. Fig. 10 (HDAC1 [4]; log[inhibitor(M)] -7.79588): 81.8715 and 100.09 | HDAC1 dose-response data (relative enzyme activity), Fig. 6 + S. Fig. 10 (HDAC1 [4]; log[inhibitor(M)] -8.49485): 94.0176 and 111.23 | HDAC1 dose-response data (relative enzyme activity), Fig. 6 + S. Fig. 10 (HDAC1 [4]; log[inhibitor(M)] -9.19382): 106.697 and 107.189 | HDAC1 dose-response data (relative enzyme activity), Fig. 6 + S. Fig. 10 (HDAC1 [4]; log[inhibitor(M)] -9.89279): 102.41 and 107.234 | HDAC1 dose-response data (relative enzyme activity), Fig. 6 + S. Fig. 10 (HDAC1 [4]; [7]): 103,6577* and 97,95181* | Ki (HDAC3/NCoR2 [5]): 16.8 ± 0.2 nM | HDAC3 dose-response data (relative enzyme activity), Fig. 6 + S. Fig. 10 (HDAC3/NCoR2 [5]; log[inhibitor(M)] -4.30103): 0.8181 and 0.573 | HDAC3 dose-response data (relative enzyme activity), Fig. 6 + S. Fig. 10 (HDAC3/NCoR2 [5]; log[inhibitor(M)] -5): 3.641 and 2.7786 | HDAC3 dose-response data (relative enzyme activity), Fig. 6 + S. Fig. 10 (HDAC3/NCoR2 [5]; log[inhibitor(M)] -5.69897): 13.6613 and 10.1867 | HDAC3 dose-response data (relative enzyme activity), Fig. 6 + S. Fig. 10 (HDAC3/NCoR2 [5]; log[inhibitor(M)] -6.39794): 32.1253 and 23.5469 | HDAC3 dose-response data (relative enzyme activity), Fig. 6 + S. Fig. 10 (HDAC3/NCoR2 [5]; log[inhibitor(M)] -7.09691): 54.9619 and 43.4084 | HDAC3 dose-response data (relative enzyme activity), Fig. 6 + S. Fig. 10 (HDAC3/NCoR2 [5]; log[inhibitor(M)] -7.79588): 82.3244 and 70.9683 | HDAC3 dose-response data (relative enzyme activity), Fig. 6 + S. Fig. 10 (HDAC3/NCoR2 [5]; log[inhibitor(M)] -8.49485): 99.6485 and 88.5218 | HDAC3 dose-response data (relative enzyme activity), Fig. 6 + S. Fig. 10 (HDAC3/NCoR2 [5]; log[inhibitor(M)] -9.19382): 108.712 and 95.7391 | HDAC3 dose-response data (relative enzyme activity), Fig. 6 + S. Fig. 10 (HDAC3/NCoR2 [5]; log[inhibitor(M)] -9.89279): 105.572 and 99.3991 | HDAC3 dose-response data (relative enzyme activity), Fig. 6 + S. Fig. 10 (HDAC3/NCoR2 [5]; [7]): 106,3724* and 79,46551* | Ki (HDAC8 [6]): 55 ± 0.7 nM | HDAC8 dose-response data (relative enzyme activity, replicate values), Fig. 6 + S. Fig. 10 (HDAC8 [6]; Inhibitor conc [M] -8.49485 (log)): 89.9056 and 98.262 | HDAC8 dose-response data (relative enzyme activity, replicate values), Fig. 6 + S. Fig. 10 (HDAC8 [6]; Inhibitor conc [M] -9.19382 (log)): 96.4725 and 98.8615 | HDAC8 dose-response data (relative enzyme activity, replicate values), Fig. 6 + S. Fig. 10 (HDAC8 [6]; Inhibitor conc [M] given as -7.09691 (log)): 43.1119 and 55.3592 | HDAC8 dose-response data (relative enzyme activity, replicate values), Fig. 6 + S. Fig. 10 (HDAC8 [6]; Inhibitor conc [M] given as -7.79588 (log)): 72.8593 and 80.9184 | HDAC8 dose-response data (relative enzyme activity, replicate values), Fig. 6 + S. Fig. 10 (HDAC8 [6]; Inhibitor conc [M] given as -9.89279 (log)): 99.4729 and 100.504 | HDAC8 dose-response data (relative enzyme activity), Fig. 6 + S. Fig. 10 (HDAC8 [6]; Inhibitor conc [M] -4.30103): 2.477 and 2.544 | HDAC8 dose-response data (relative enzyme activity), Fig. 6 + S. Fig. 10 (HDAC8 [6]; Inhibitor conc [M] -5): 8.237 and 8.756 | HDAC8 dose-response data (relative enzyme activity), Fig. 6 + S. Fig. 10 (HDAC8 [6]; Inhibitor conc [M] -5.69897): 16.1631 and 21.2375 | HDAC8 dose-response data (relative enzyme activity), Fig. 6 + S. Fig. 10 (HDAC8 [6]; Inhibitor conc [M] -6.39794): 27.7385 and 36.3881 | HDAC8 inhibition in words (HDAC8 [6]; in solution): robust nanomolar potency | residual enzymatic activity relative to control wells (HDAC6; log[inhibitor(M)] -4.30103): 0.91 and 1.08 | residual enzymatic activity relative to control wells (HDAC6; log[inhibitor(M)] -5): 1.61 and 1.34 | residual enzymatic activity relative to control wells (HDAC6; log[inhibitor(M)] -5.69897): 2.69 and 2.19 | residual enzymatic activity relative to control wells (HDAC6; log[inhibitor(M)] -6.39794): 9.28 and 7.48 | residual enzymatic activity relative to control wells (HDAC6; log[inhibitor(M)] -7.09691): 29.33 and 24.37 | residual enzymatic activity relative to control wells (HDAC6; log[inhibitor(M)] -7.79588): 61.34 and 57.66 | residual enzymatic activity relative to control wells (HDAC6; log[inhibitor(M)] -8.49485): 91.27 and 83.89 | residual enzymatic activity relative to control wells (HDAC6; log[inhibitor(M)] -9.19382): 101.6 and 95.57 | residual enzymatic activity relative to control wells (HDAC6; log[inhibitor(M)] -9.89279): 101.56 and 98.95 | residual enzymatic activity relative to control wells (HDAC6; log[inhibitor(M)] -10.585): 102,36* and 98,9* | residual enzymatic activity relative to control wells (HDAC4; inhibitor 5 µM): 82.79 | remaining activity at 5 µM (HDAC4; inhibitor 5 µM, read-out: residual enzymatic activity relative to control wells): 91.8% | residual enzymatic activity relative to control wells (HDAC4; inhibitor 50 µM): 33.99 | remaining activity at 50 µM (HDAC4; inhibitor 50 µM, read-out: residual enzymatic activity relative to control wells): 41.7% | inhibitory potency in words (HDACs 1‒3 and 8): inhibited all four isozymes with similar potency
